For this test, the system named is murine skin inflammation; swelling caused by AA. The test is described as follows: arachidonic acid (AA), murine skin inflammation (ear) model, topical administration. It is filed as in vivo. The settings on record: for percent inhibition of swelling caused by AA alone: 10 uL of 100 mg/mL in CHCl3 (lithocholic acid in CHCl3:CH3OH 1:1) applied to the ear immediately after AA, 90 minutes; for % Inhibition of Swelling: topical, 1 mg applied to the ear immediately after arachidonic acid, 6 mm ear disk weighed at 90 minutes, average of two experiments (Table 1). On the procedure:
Briefly, the compounds at an appropriate concentration are dissolved in a suitable solvent, and applied to a rodent ear immediately following application of arachidonic acid (AA). A control of AA alone is run. About 90 minutes later, a 6 mm disk of each ear is removed and weighed. The percent inhibition of swelling caused by AA alone is calculated for the steroidal C-glycoside derivatives of the invention and compared to other steroids.
Using the arachidonic acid (AA), murine skin inflammation model, described by Harris, R. R. et al. (Skin Pharmacol 1990; 3:29-40) the anti-inflammatory activity of (5) was tested. For comparison, Lithocholic acid and Methyl lithocholate, were also tested. Compounds were dissolved at 100 mg/mL in CHCl3, except for lithocholic acid which was dissolved in CHCl3 :CH3 OH (1:1); 10 uL of each compound was applied to the ear immediately following arachidonic acid (AA). AA was applied alone, or followed immediately with methyl lithocholate, ketone (12) alkene (11) or compound (5). 90 minutes later, a 6 mm disk of each ear was removed and weighed.

As to `C[C@H](CCC(=O)O)[C@H]1CC[C@H]2[C@@H]3CC[C@@H]4C[C@H](O)CC[C@]4(C)[C@H]3CC[C@]12C` [Lithocholic acid], the “percent inhibition of swelling caused by AA alone” value (“percent inhibition” below) is given as around 22.5% and the “% Inhibition of Swelling” value is given as 30.5%.
With `COC(=O)CC[C@@H](C)[C@H]1CC[C@H]2[C@@H]3CC[C@@H]4C[C@H](O)CC[C@]4(C)[C@H]3CC[C@]12C` [methyl lithocholate], the “percent inhibition” value was “about 17.5%” and the “% Inhibition of Swelling” value is recorded as 17.5%.
In the case of `COC(=O)CC[C@@H](C)[C@H]1CC[C@H]2[C@@H]3CC[C@@H]4C[C@H](OCC(O)(CO)C[C@@H]5O[C@@H](C)[C@@H](O)[C@@H](O)[C@@H]5O)CC[C@]4(C)[C@H]3CC[C@]12C` (stereo partly drawn) [compound (5), 1-[3-O-(Lithocholic acid)]-2-(alpha-L-C-methylfucopyranose)-2',3'-propanediol methyl ester], the “percent inhibition” value is “about 48.5%” and the “% Inhibition of Swelling” value is recorded as 48.5%.
